This note sets out measurements from PubChem BioAssay (NCI).

Structures are written as SMILES.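 Method: 48-hour compound exposure of cells in 96-well plates, five concentrations, linear interpolation of endpoints. TGI marks complete inhibition of growth.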

Some test systems named below: DMS 114 small cell lung; KM20L2 colon; XF 498 CNS; DLD-1 colon; DMS 273 small cell lung; LXFL 529 NSCLC; RXF-631 renal; HOP-18 NSCLC.
Common to all, as to assay: growth of human tumour cells (NCI), 48 h

For `C=C1C[C@]23C[C@@]1(O)CC[C@H]2[C@@]12C=C[C@H](O)[C@@](C)(C(=O)O1)[C@H]2[C@@H]3C(=O)O`, the TGI in the test with DMS 114 small cell lung, in the test with KM20L2 colon, in the test with XF 498 CNS, in the test on DLD-1 colon and with DMS 273 small cell lung was > 100 µM in each case.
As for `NC(=O)COc1ccccc1`, the TGI in the test on DMS 114 small cell lung, in the test with KM20L2 colon, in the test with LXFL 529 NSCLC, in the test with XF 498 CNS, in the test on RXF-631 renal and in the test with DLD-1 colon was > 100 µM each time. In addition, the TGI with DMS 273 small cell lung was > 100 µM.
Turning to `O=[As](O)(O)c1cc(N=Nc2ccc(-c3ccc(N=Nc4cc([As](=O)(O)O)c(O)cc4O)cc3)cc2)c(O)cc1O`, the TGI with HOP-18 NSCLC is > 100 µM; in the test on DMS 114 small cell lung, > 100 µM; in the test with KM20L2 colon, > 100 µM; with LXFL 529 NSCLC, > 100 µM; with RXF-631 renal it was > 100 µM; with DLD-1 colon, > 59.2 µM. Also, the TGI with DMS 273 small cell lung was > 100 µM.
Take `COS(=O)c1cc(Cl)cc(Cl)c1O` (stereo unspecified): the TGI in the test on DMS 114 small cell lung, in the test on LXFL 529 NSCLC, in the test on XF 498 CNS and in the test on DLD-1 colon was > 100 µM throughout.
In the case of `CCN(CC)CCCNc1ccc2nnn3c4ccc(O)cc4c(=O)c1c23`, the TGI stood at 29.8 µM in the test with HOP-18 NSCLC; 25.1 µM in the test on DMS 114 small cell lung; 18.7 µM in the test with KM20L2 colon; 21.2 µM in the test with LXFL 529 NSCLC; 28.9 µM with XF 498 CNS; 17.4 µM in the test on RXF-631 renal. Further, the TGI is 19 µM in the test with DLD-1 colon and 17.9 µM in the test with DMS 273 small cell lung.
